Test results reported in publication PMC12017328, “RNA toehold switch-based reporter assay to assess bacterial uptake of antisense oligomers” (mBio, 2025).

Columns and labels:
[1] = system: Salmonella, UPEC 536, E. coli MG1655 and BW25113 expressing TS7-Mut_9::sfGFP; assay: Toehold switch reporter assay, flow cytometry, statements for all strains; assay type: cell-based, Salmonella enterica; E. coli; settings: CPP conjugated to PNA_toe; 5 µM; measured at 4, 6 and 17 h; all strains
Protocol: According to previous RNA-seq analyses ([12], [13], [22]), CPP-PNAs can strongly downregulate target mRNAs within 15 min. […] We therefore repeated the screen conducted and assayed fluorescence by flow cytometry at 4, 6, and 17 h post-treatment. […] The level of upregulation observed in the E. coli K12 strains was again substantially lower than in Salmonella and UPEC 536. […] This might be related to the stability of KFF in the culture media.
Fig 9 Flow cytometric analysis of fluorescence of sfGFP informs on delivery efficiency of CPPs. Bacterial cultures expressing the TS7-Mut_9::sfGFP reporter construct treated with the indicated CPP-PNA_toe constructs at 5 µM each. The median fluorescence intensity of sfGFP was measured after 4 h (black bars), 6 h (dark gray bars), and 17 h (light gray bars) of treatment using flow cytometry. Relative upregulation of sfGFP is shown and was calculated by dividing the median fluorescence intensity of the test samples by the median fluorescence intensity of the control samples, to which water was added. Error bars indicate the standard deviation calculated from two independent experiments.
Overnight cultures of respective bacterial strains (listed in Table S5) were diluted 1:100 in fresh MHB and grown to OD600 0.3. Overnight and secondary cultures were prepared with or without chloramphenicol (20 µg/mL) depending on the antibiotic resistance profile of the strain. Ninty-five microliters of the 0.3 OD600 bacterial suspension was distributed in the 96-well plate and mixed with 5 µL water or 20× CPP PNA working solutions (150 µM, 100 µM or 50 µM stocks in water). An equivalent volume of water was added to the bacteria to serve as untreated control. For testing the activity in other growth media (M9 minimal medium and LB), the bacteria were cultured in the respective media and treated as described above.
Bacterial cells were treated as described above, fixed with 4% paraformaldehyde (PFA) in phosphate-buffered saline (PBS) after the indicated time points, and stained with 1 µg/mL DAPI for flow cytometric measurement of DAPI-positive bacterial cells. Cell suspensions were diluted by a factor of ~100–1,000 in PBS and sampled from 96-well plates to achieve ~2,000 counts/s for flow cytometric measurements. Flow cytometry was performed using the Agilent Novocyte flow cytometer with a high-throughput sampler, and 100,000 events were recorded per sample. The DAPI fluorescence was detected using the Pacific Blue channel; sfGFP and mNeon were detected in the FITC channel, and mCherry fluorescence in the PE-Texas Red channel. The lower threshold for FSC-H was set to 2,000 to eliminate the potential artifacts from smaller particles such as dust, bubbles, or cell debris. The wild-type strains without plasmids served as a control to detect the background fluorescence, termed bacterial background. A contour plot with FSC and SSC, each with bins defined on a logarithmic scale was used to select singlets. The gating strategy is described in Fig.S6. The median fluorescence intensity was used for calculating the fold upregulation of fluorescence. Flow cytometry data sets were analyzed using the Novocyte software (Agilent).
Fold upregulation in median fluorescence intensity (FI) from flow cytometry was calculated as follows:
fold upregulation = FI (sample)−FI(bacterial background)/FI (water control)−FI(bacterial background)

[2] = system: E. coli BW25113 expressing TS7-Mut_9::sfGFP; assay: Toehold switch reporter assay, flow cytometry; assay type: cell-based; settings: CPP conjugated to PNA_toe, 5 µM, 17 h
Protocol: Overnight cultures of respective bacterial strains (listed in Table S5) were diluted 1:100 in fresh MHB and grown to OD600 0.3. Overnight and secondary cultures were prepared with or without chloramphenicol (20 µg/mL) depending on the antibiotic resistance profile of the strain. Ninty-five microliters of the 0.3 OD600 bacterial suspension was distributed in the 96-well plate and mixed with 5 µL water or 20× CPP PNA working solutions (150 µM, 100 µM or 50 µM stocks in water). An equivalent volume of water was added to the bacteria to serve as untreated control. […]
The PNA-treated samples were incubated in the plate reader for 4–24 h at 37°C, with continuous double-orbital shaking (237 counts per minute). The fluorescence (λex 480 nm/λem 510 nm) and OD600 were recorded in a Synergy H1 plate reader (Biotek) by measuring every 20 min. The bacteria were sampled at various time points post-treatment and further analyzed by flow cytometry.
Bacterial cells were treated as described above, fixed with 4% paraformaldehyde (PFA) in phosphate-buffered saline (PBS) after the indicated time points, and stained with 1 µg/mL DAPI for flow cytometric measurement of DAPI-positive bacterial cells. […] Flow cytometry was performed using the Agilent Novocyte flow cytometer with a high-throughput sampler, and 100,000 events were recorded per sample. […]

bacteria = settings: CPP conjugated to anti-acpP PNA; ref [13]; cited from earlier work
Excerpt: For example, we observed a rapid but transient increase in fluorescence for some CPPs (e.g., KFF) and a sustained increase for others (e.g., RXR). This variation can likely be explained by the chemistry and stability of these carriers. […] Therefore, the different dynamics in fluorescence increase c ...

Sequence	Dynamics of sfGFP upregulation [1]	Reporter activation (fold upregulation of sfGFP vs water control) [2]	Time after which bacteria are eradicated (bacteria) [min]
RRRQRRKKRGY [Seq118, cell-penetrating peptide …]	only showed upregulation at the 17 h time point	fivefold	–
RXRRXRRXRRXRXB [RXR-acpP, RXR conjugated to anti-acpP PNA …]	–	–	15
